The values below are quoted from earlier work in patent US20030113384A1, “Antimicrobial compositions for mastitis control” (Ecolab Inc., priority 1999, published 2003).

As to `CCCCCCC(=O)O` [heptanoic acid], the pKa is listed as 4.4.

The term pKa denotes the pH at which an ionisable group is half protonated.
